The record followed here is patent publication US8871753B2, “Macrocyclic compounds and their use as kinase inhibitors” (Incyte Corporation, priority 2008, dated 2014).

Format in all cases: biochemical
In assay [1] the target is T1, human JAK3 (a.a. 781-1124) (Homo sapiens, UniProt P52333).
T1 construct: JAK3 (a.a. 781-1124); His tag (N); made in house; host or cells: insect cells (baculovirus)
The assay is described as follows: In vitro JAK kinase assay (HTRF, phosphorylation of a biotinylated peptide), JAK3. Put shortly: (§1)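 Kinase activity was measured as phosphorylation of a biotinylated peptide, with ATP at 90 μM for JAK1, 30 μM for JAK2 and 3 μM for JAK3. Reactions ran 1 hr at room temperature, were stopped with EDTA plus SA-APC and Eu-Py20, and were read by HTRF after 40 minutes of antibody binding.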

The target in a further assay is TYK2 (Homo sapiens, UniProt P29597). The assay is described as follows: TYK2 kinase inhibition (Table A1).
Assay [2] has as its target T2, human JAK2 (a.a. 828-1132) (Homo sapiens, UniProt O60674).
T2 construct: JAK2 (a.a. 828-1132); His tag (N); made in house; host or cells: insect cells (baculovirus)
The assay is described as follows: In vitro JAK kinase assay (HTRF, phosphorylation of a biotinylated peptide), JAK2. Put shortly:
as §1

Assay [3] addresses T3, human JAK1 (a.a. 837-1142) (Homo sapiens, UniProt P23458).
T3 construct: human JAK1 (a.a. 837-1142); His tag (N); made in house; host or cells: insect cells (baculovirus)
The assay is described as follows: In vitro JAK kinase assay (HTRF, phosphorylation of a biotinylated peptide), JAK1. The settings on record: read-out: JAK1 IC50. Put shortly: as §1

Assay [4] deals with T4, Recombinant Human Anaplastic Lymphoma Kinase (Homo sapiens, UniProt Q9UM73).
T4 construct: purchased Invitrogen, Carlsbad, Calif
The assay is described as follows: ALK HTRF kinase assay. Put shortly: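 TR-FRET read-out (Eu anti-pTyr antibody + streptavidin-APC) of biotin-peptide phosphorylation by recombinant human enzyme; IC50 by sigmoidal fit with top/bottom baselines and Hill slope.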

Where [5] appears, read: method AA1 (3 μM ATP) or AA2 (1000 μM ATP), not stated per value.
Setting [6] is: method AA1 (30 μM ATP) or AA2 (1000 μM ATP), not stated per value.
Where [7] appears, read: method AA1 (90 μM ATP) or AA2 (1000 μM ATP), not stated per value.
Where [8] appears, read: compound at 500 nM or 1 mM, 90 μM ATP.
[9] abbreviates: compound at a concentration of 500 nM or 1 mM (not specified), cells shown as percentage.
[10] abbreviates: percentage inhibition of the example compound at a concentration of 500 nM or 1 mM (not specified which).
Setting [11] is: Table B1, cells without percent sign.

Structures can show the parent of a compound that is named as a salt. Where two headings read alike, the source gives them in different places. Bounds are passed on as bounds.

T1 sequence (P52333 781-1124): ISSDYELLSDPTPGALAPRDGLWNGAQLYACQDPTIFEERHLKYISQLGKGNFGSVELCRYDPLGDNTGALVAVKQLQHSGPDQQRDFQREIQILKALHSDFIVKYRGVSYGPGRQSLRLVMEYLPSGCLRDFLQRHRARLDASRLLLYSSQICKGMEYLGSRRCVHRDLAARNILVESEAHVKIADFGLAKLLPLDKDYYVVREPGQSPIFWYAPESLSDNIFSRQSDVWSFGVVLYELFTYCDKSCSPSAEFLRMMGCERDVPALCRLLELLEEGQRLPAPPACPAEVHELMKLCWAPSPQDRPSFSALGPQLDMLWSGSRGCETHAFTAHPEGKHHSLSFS
Sequence of TYK2 (P29597 whole entry): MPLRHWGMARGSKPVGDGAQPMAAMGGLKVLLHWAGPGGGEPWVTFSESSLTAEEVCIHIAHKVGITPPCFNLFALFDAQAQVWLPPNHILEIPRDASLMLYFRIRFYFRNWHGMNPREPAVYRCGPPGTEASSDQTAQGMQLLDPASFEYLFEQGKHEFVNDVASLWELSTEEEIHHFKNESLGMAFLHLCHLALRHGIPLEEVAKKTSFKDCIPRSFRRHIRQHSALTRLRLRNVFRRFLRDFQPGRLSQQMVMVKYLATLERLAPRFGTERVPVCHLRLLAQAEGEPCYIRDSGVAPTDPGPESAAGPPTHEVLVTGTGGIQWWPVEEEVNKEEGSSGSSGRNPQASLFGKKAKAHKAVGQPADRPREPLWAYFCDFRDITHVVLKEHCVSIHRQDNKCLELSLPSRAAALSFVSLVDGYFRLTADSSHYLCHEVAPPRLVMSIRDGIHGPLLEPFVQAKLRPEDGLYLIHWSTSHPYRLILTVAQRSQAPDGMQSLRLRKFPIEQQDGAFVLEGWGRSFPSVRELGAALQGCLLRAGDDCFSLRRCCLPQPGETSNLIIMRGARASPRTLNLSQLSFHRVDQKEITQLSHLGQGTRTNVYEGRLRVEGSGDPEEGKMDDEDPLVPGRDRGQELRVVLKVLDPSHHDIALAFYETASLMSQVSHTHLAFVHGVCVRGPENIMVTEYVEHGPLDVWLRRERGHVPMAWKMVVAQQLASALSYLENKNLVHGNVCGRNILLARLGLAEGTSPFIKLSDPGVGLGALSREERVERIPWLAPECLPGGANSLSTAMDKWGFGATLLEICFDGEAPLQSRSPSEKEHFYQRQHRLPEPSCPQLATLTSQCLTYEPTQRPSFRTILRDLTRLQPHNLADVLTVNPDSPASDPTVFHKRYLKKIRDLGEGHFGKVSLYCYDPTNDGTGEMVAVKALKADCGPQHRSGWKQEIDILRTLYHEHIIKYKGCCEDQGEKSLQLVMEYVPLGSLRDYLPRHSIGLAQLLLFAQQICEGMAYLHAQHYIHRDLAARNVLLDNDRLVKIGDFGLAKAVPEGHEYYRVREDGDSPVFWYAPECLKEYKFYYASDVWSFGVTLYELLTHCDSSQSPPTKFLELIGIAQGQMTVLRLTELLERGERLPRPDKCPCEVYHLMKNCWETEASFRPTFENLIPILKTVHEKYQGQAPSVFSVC
T4 sequence (Q9UM73 19-1620): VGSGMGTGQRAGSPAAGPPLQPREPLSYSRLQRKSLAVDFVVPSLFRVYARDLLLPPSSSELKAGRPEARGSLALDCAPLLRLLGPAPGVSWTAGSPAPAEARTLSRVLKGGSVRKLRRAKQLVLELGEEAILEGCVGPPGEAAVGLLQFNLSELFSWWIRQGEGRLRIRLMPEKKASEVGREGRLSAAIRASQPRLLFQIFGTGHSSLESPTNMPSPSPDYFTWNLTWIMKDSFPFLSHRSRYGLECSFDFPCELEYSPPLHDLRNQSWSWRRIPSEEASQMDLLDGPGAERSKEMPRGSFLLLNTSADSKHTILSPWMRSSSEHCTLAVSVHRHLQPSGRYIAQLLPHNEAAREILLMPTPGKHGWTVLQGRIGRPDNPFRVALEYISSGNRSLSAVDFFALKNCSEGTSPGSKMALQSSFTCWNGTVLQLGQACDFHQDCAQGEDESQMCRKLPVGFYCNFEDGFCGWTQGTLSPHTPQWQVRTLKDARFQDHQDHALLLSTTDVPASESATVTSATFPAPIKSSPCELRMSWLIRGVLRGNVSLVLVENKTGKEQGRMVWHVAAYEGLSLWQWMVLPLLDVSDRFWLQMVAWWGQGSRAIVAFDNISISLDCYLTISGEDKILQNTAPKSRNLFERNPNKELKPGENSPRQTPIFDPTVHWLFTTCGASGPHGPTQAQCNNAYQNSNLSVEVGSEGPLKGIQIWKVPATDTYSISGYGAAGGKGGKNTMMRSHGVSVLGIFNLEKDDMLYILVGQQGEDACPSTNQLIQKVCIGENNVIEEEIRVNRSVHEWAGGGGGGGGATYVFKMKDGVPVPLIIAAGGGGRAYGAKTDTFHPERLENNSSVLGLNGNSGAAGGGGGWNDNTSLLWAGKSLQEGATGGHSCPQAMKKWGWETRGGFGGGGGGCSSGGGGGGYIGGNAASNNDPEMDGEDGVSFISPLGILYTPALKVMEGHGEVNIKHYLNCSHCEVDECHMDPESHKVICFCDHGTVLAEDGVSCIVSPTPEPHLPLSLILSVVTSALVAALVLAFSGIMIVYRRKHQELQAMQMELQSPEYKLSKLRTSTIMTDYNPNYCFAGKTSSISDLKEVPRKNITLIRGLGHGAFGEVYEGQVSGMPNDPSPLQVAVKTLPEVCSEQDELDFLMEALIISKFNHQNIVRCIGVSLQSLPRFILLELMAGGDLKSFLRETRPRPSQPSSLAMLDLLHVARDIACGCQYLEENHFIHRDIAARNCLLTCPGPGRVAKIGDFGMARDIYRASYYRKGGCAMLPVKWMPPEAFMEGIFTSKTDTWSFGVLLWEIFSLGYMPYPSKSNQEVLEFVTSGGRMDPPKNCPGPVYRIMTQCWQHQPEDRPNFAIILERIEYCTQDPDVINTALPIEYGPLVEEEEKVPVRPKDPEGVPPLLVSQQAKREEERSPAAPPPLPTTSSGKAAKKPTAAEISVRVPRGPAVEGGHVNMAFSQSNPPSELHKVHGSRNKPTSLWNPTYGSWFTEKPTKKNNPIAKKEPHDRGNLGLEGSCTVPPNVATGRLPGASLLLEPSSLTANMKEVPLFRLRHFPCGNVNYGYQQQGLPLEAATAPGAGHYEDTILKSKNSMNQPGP
T3 sequence (P23458 849-1154): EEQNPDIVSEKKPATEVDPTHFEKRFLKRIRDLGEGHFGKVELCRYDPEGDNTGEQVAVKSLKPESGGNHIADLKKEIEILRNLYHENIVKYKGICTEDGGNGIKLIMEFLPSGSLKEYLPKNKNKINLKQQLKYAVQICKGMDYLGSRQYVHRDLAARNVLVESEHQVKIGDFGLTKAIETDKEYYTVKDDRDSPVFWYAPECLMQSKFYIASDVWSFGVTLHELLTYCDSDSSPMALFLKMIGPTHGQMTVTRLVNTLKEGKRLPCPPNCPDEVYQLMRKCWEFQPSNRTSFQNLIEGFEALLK
T2 sequence (O60674 828-1132): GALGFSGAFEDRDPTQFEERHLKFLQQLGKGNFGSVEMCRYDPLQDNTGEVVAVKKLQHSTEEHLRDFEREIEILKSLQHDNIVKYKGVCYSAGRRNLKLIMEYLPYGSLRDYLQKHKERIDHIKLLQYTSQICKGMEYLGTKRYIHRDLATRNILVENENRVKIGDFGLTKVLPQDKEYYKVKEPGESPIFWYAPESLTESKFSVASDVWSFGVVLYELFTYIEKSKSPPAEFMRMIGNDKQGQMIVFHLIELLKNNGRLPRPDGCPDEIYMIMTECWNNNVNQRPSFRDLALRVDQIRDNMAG

As for `O=C(Nc1ccc2[nH]ccc2c1)c1cc2cc(c1)OCCSc1cccc(c1)Nc1nc(ncc1Cl)N2` [Example D56, 6-Chloro-N-1H-indol-5-yl-17-oxa-14-thia-2,4,8,24-tetraazatetracyclo[16.3.1.1(3,7).1(9,13)]tetracosa-1(22),3(24),4,6,9(23),10,12,18,20-nonaene-20-carboxamide trifluoroacetate], the IC50 is 42 nM in assay [1] (Table D1); 14 nM against TYK2 (Table D1); 4.8 nM in assay [2] (Table D1); 10 nM in assay [3] (Table D1); 1940 nM in assay [4] (Table D1, 90 μM ATP).

In the case of `O=C(COc1ccc2cc1CCc1cccc(c1)Nc1ncc(Cl)c(n1)N2)N1CCN(C(=O)Nc2ccccc2)CC1` [Example A13, 4-({[6-Chloro-2,4,8,22-tetraazatetracyclo[14.3.1.1(3,7).1(9,13)]docosa-1(20),3(22),4,6,9(21),10,12,16,18-nonaen-12-yl]oxy}acetyl)-N-phenylpiperazine-1-carboxamide trifluoroacetate], the IC50 in assay [1] (setting [5]) stood at 44 nM; against TYK2, 42 nM; in assay [2] (setting [6]), 2.6 nM; in assay [3] (setting [7]) it was 1 nM. In addition, in assay [4] (setting [8]), the “ALK % of inhibition at a concentration of 500 nM or 1 mM” value (“ALK % of inhibition” for short) was 20%.

Turning to `O=S1(=O)CCc2cccc(c2)Nc2ncc(Cl)c(n2)Nc2cccc1c2` [Example D24, 6-chloro-14-thia-2,4,8,23-tetraazatetracyclo[15.3.1.1(3,7).1(9,13)]tricosa-1(21),3(23),4,6,9(22),10,12,17,19-nonaene 14,14-dioxide trifluoroacetate], the half-maximal inhibitory concentration (IC50) came to 20 nM in assay [1] (Table D1); 16 nM at TYK2 (Table D1); 6 nM in assay [2] (Table D1); 5 nM in assay [3] (Table D1); 1370 nM in assay [4] (Table D1, 90 μM ATP).

As for `O=C(Nc1ccc2cc1CCc1cccc(c1)Nc1ncc(Cl)c(n1)N2)N[C@H]1CCN(Cc2ccccc2)C1` [Example B173, N-[(3S)-1-Benzylpyrrolidin-3-yl]-N′-[6-chloro-2,4,8,22-tetraazatetracyclo[14.3.1.1(3,7).1(9,13)]docosa-1(20),3(22),4,6,9(21),10,12,16,18-nonaen-12-yl]urea bis(trifluoroacetate)], the IC50 in assay [1] (Table B1) is 163 nM; against TYK2 (Table B1), 55 nM; in assay [2] (Table B1), 23 nM; in assay [3] (Table B1), 3.5 nM. The “ALK % of inhibition” value in assay [4] (setting [9]) turned out to be 14%.

Turning to `Cc1nc(S(=O)(=O)N2CCC(CN(C)Cc3ccc4cc3CCc3cncc(c3)Nc3ncc(Cl)c(n3)N4)CC2)cn1C` [Example B343, 1-[6-Chloro-2,4,8,18,22-pentaazatetracyclo[14.3.1.1(3,7).1(9,13)]docosa-1(20),3(22),4,6,9(21),10,12,16,18-nonaen-12-yl]-N-({1-[(1,2-dimethyl-1H-imidazol-4-yl)sulfonyl]piperidin-4-yl}methyl)-N-methylmethanamine tris(trifluoroacetate)], the IC50 in assay [1] (Table B1) is greater than 400 nM; against TYK2 (Table B1), 180 nM; in assay [2] (Table B1) it was 130 nM; in assay [3] (Table B1), 3.8 nM. For the same compound, the “ALK % of inhibition” value in assay [4] (setting [10]) was determined as 42%.

As to `O=C(Nc1ccc2cc1CCc1cccc(c1)Nc1ncc(Cl)c(n1)N2)c1cccnc1` [Example B30, N-[6-Chloro-2,4,8,22-tetraazatetracyclo[14.3.1.1(3,7).1(9,13)]docosa-1(20), 3(22),4,6,9(21),10,12,16,18-nonaen-12-yl]nicotinamide bis(trifluoroacetate)], the IC50 in assay [1] (Table B1) is 2.9 nM; at TYK2 (Table B1), 2.5 nM; in assay [2] (Table B1), 0.78 nM; in assay [3] (Table B1), 0.87 nM; in assay [4] (setting [11]), 260 nM.

As for `O=C(Nc1cc2cc(c1)OCCSc1cccc(c1)Nc1nc(ncc1Cl)N2)c1ccno1` [Example D59, N-[6-Chloro-17-oxa-14-thia-2,4,8,24-tetraazatetracyclo[16.3.1.1(3,7).1(9,13)]tetracosa-1(22),3(24),4,6,9(23),10,12,18,20-nonaen-20-yl]isoxazole-5-carboxamide trifluoroacetate], the IC50 in assay [1] (Table D1) came out at 7.1 nM; against TYK2 (Table D1) it was 2.1 nM; in assay [2] (Table D1), 0.6 nM; in assay [3] (Table D1), 2.3 nM; in assay [4] (Table D1, 90 μM ATP) it was 200 nM.

Turning to `COC(=O)c1ccc2cc1CCc1cccc(c1)Nc1ncc(Cl)c(n1)N2` [Example B22, Methyl 6-chloro-2,4,8,22-tetraazatetracyclo[14.3.1.1(3,7).1(9,13)]docosa-1(20),3(22),4,6,9(21),10,12,16,18-nonaene-12-carboxylate trifluoroacetate], the half-inhibitory concentration (IC50) was 104 nM in assay [1] (Table B1); 41 nM against TYK2 (Table B1); 11 nM in assay [2] (Table B1); 144 nM in assay [3] (Table B1); 1440 nM in assay [4] (setting [11]).

Turning to `CN(Cc1ccc2cc1CCc1cncc(c1)Nc1ncc(Cl)c(n1)N2)C(=O)C1CCN(C(=O)c2ccno2)CC1` [Example B336, N-{[6-Chloro-2,4,8,18,22-pentaazatetracyclo[14.3.1.1(3,7).1(9,13)]docosa-1(20),3(22),4,6,9(21),10,12,16,18-nonaen-12-yl]methyl}-1-(isoxazol-5-ylcarbonyl)-N-methylpiperidine-4-carboxamide bis(trifluoroacetate)], the half-inhibitory concentration (IC50) was greater than 200 nM in assay [1] (Table B1), greater than 200 nM at TYK2 (Table B1), 140 nM in assay [2] (Table B1) and 52 nM in assay [3] (Table B1). Moreover, the “ALK % of inhibition” value in assay [4] (setting [10]) is reported as 11%.

Turning to `O=C(Nc1nccs1)Nc1ccc2cc1CCc1cccc(c1)Nc1ncc(Cl)c(n1)N2` [Example B245, N-[6-Chloro-2,4,8,22-tetraazatetracyclo[14.3.1.1(3,7).1(9,13)]docosa-1(20),3(22),4,6,9(21),10,12,16,18-nonaen-12-yl]-N′-1,3-thiazol-2-ylurea trifluoroacetate], the IC50 in assay [1] (Table B1) was found to be 20 nM; against TYK2 (Table B1), 8.5 nM; in assay [2] (Table B1), 78 nM; in assay [3] (Table B1), 17 nM. Further, in assay [4] (setting [9]), the “ALK % of inhibition” value came out at 41%.

On to `O=C(Nc1ccc2cc1CCc1cncc(c1)Nc1ncc(Cl)c(n1)N2)N[C@H]1CCN(C(=O)c2cc(C3CC3)on2)C1` [Example B270, N-[6-Chloro-2,4,8,18,22-pentaazatetracyclo[14.3.1.1(3,7).1(9,13)]docosa-1(20),3(22),4,6,9(21),10,12,16,18-nonaen-12-yl]-N′-{(3S)-1-[(5-cyclopropylisoxazol-3-yl)carbonyl]pyrrolidin-3-yl}urea bis(trifluoroacetate)], for which the IC50 in assay [1] (Table B1) is greater than 10000 nM; on TYK2 (Table B1), 607 nM; in assay [2] (Table B1) it was 279 nM; in assay [3] (Table B1) it was 20 nM. The “ALK % of inhibition” value in assay [4] (setting [9]) turned out to be 10%.

As for `COc1ccccc1NC(=O)N1CCC(CC(=O)Nc2ccc3cc2CCc2cncc(c2)Nc2ncc(Cl)c(n2)N3)CC1` [Example A152, 4-(2-{[6-Chloro-2,4,8,18,22-pentaazatetracyclo[14.3.1.1(3,7).1(9,13)]docosa-1(20),3(22),4,6,9(21),10,12,16,18-nonaen-12-yl]amino}-2-oxoethyl)-N-(2-methoxyphenyl)piperidine-1-carboxamide bis(trifluoroacetate)], the IC50 is greater than 100 nM in assay [1] (setting [5]), 2.4 nM against TYK2, 2.4 nM in assay [2] (setting [6]) and 0.4 nM in assay [3] (setting [7]). The “ALK % of inhibition” value in assay [4] (setting [8]) turned out to be 37%.

`O=C(NCc1ccncc1)Nc1ccc2cc1CCc1cccc(c1)Nc1ncc(Cl)c(n1)N2` [Example B246, N-[6-Chloro-2,4,8,22-tetraazatetracyclo[14.3.1.1(3,7).1(9,13)]docosa-1(20),3(22),4,6,9(21),10,12,16,18-nonaen-12-yl]-N′-(pyridin-4-ylmethyl)ureabis(trifluoroacetate)]: the IC50 was 21 nM in assay [1] (Table B1), 3.4 nM against TYK2 (Table B1), 25 nM in assay [2] (Table B1) and 12 nM in assay [3] (Table B1). In assay [4] (setting [9]), the “ALK % of inhibition” value is 23%.

As for `Oc1ccc2cc1Nc1nc(ncc1Cl)Nc1cccc(c1)CC2` [Example A26, 6-Chloro-2,4,8,22-tetraazatetracyclo[14.3.1.1(3,7).1(9,13)]docosa-1(20),3(22),4,6,9(21),10,12,16,18-nonaen-10-ol trifluoroacetate], the IC50 is 9.2 nM in assay [1] (setting [5]); 45 nM at TYK2; 11 nM in assay [2] (setting [6]); 36 nM in assay [3] (setting [7]); 350 nM in assay [4] (90 μM ATP).

On to `O=C1CCc2cccc(c2)Nc2nc(ncc2Cl)Nc2cccc(c2)N1` [Example D76, 6-Chloro-2,4,8,17,24-pentaazatetracyclo[16.3.1.1(3,7).1(9,13)]tetracosa-1(22),3(24),4,6,9(23),10,12,18,20-nonaen-16-one trifluoroacetate], for which the IC50 in assay [1] (Table D1) amounted to 117 nM; on TYK2 (Table D1) it was 13 nM; in assay [2] (Table D1), 18 nM; in assay [3] (Table D1) it was 11 nM; in assay [4] (Table D1, 90 μM ATP), 2050 nM.
